Data on 36 molecules can be found in patent publication US20140315933A1, “CHEMICAL COMPOUNDS” (Pfizer Limited, priority 2013, published 2014).

Structures are written as SMILES. Where a name gives a salt, the structure may show the parent alone.

The target of this assay is T1, URAT-1 transporter (Homo sapiens, UniProt Q96S37).
T1 construct: expressed in transfected cells
T1 sequence (Q96S37 with tags, fused parts or gaps): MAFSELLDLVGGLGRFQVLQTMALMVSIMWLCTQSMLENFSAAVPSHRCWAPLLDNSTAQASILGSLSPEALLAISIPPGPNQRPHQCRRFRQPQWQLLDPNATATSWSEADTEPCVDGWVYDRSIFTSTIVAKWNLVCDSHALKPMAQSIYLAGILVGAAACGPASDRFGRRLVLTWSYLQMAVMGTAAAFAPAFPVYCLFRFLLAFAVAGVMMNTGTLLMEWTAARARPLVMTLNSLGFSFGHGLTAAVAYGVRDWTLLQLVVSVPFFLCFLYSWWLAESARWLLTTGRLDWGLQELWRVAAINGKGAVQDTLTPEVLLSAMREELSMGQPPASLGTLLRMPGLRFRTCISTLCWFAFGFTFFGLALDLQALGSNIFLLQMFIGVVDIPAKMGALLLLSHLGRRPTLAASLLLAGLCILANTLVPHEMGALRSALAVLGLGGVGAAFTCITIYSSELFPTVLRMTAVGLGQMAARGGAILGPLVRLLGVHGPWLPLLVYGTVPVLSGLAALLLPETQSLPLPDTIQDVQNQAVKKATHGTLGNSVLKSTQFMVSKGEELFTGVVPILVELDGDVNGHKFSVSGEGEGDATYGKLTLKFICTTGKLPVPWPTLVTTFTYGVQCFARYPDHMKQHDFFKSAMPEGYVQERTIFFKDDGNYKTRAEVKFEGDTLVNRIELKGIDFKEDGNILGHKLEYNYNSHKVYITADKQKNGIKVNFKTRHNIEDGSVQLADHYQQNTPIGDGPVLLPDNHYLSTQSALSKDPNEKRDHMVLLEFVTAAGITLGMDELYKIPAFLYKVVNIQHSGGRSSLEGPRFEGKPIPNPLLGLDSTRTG
In words: URAT-1 inhibitor activity: [14C]-uric acid uptake into CHO-URAT1(L)GFP#8 (CHO#8) cells, scintillation proximity. Type of assay: cell-based. Put shortly:
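Scintillation proximity read-out of 30 nM (final) [14C]-uric acid uptake over three hours at room temperature in chloride-free HEPES buffer pH 7.4. Compounds, 0–10 μM final with 0.25% DMSO, were added 15 minutes before substrate; cells were a clonal CHO line with human URAT1(L)-eGFP, preincubated 1 hour in chloride buffer.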
(In general: SPA uses beads or plates that emit light when radiolabelled molecules are held near them.)
The IC50 is the concentration needed to halve the response being measured. A low value points to greater potency in that assay. `N#Cc1cc(S(=O)(=O)Nc2ncc(F)s2)ccc1Oc1cccc(Cl)c1F` [Example 119, 4-(3-chloro-2-fluorophenoxy)-3-cyano-N-(5-fluoro-1,3-thiazol-2-yl)benzenesulfonamide]: the IC50 stood at 1570 nM.

Regarding `Cc1ccc(Oc2ccc(S(=O)(=O)Nc3ncc(F)s3)cc2C#N)c(F)c1F` [Example 120, 3-cyano-4-(2,3-difluoro-4-methylphenoxy)-N-(5-fluoro-1,3-thiazol-2-yl)benzenesulfonamide], the IC50 was 1320 nM. With `N#Cc1cc(S(=O)(=O)Nc2ncc(F)s2)ccc1Oc1ccc(F)c(F)c1F` [Example 121, 3-cyano-N-(5-fluoro-1,3-thiazol-2-yl)-4-(2,3,4-trifluorophenoxy)benzenesulfonamide] the figure was 1040 nM; with `COc1cc(F)cc(Oc2ccc(S(=O)(=O)Nc3ncc(F)s3)cc2C#N)c1` [Example 122, 3-cyano-4-(3-fluoro-5-methoxyphenoxy)-N-(5-fluoro-1,3-thiazol-2-yl)benzenesulfonamide], 581 nM; with `Cc1ccc(F)c(Oc2ccc(S(=O)(=O)Nc3ncc(F)s3)cc2C#N)c1F` [Example 123, 3-cyano-4-(2,6-difluoro-3-methylphenoxy)-N-(5-fluoro-1,3-thiazol-2-yl)benzenesulfonamide], 1250 nM.

`Cc1ccc(Oc2ccc(S(=O)(=O)Nc3ncc(F)s3)cc2C#N)c(Cl)c1` [Example 124, 4-(2-chloro-4-methylphenoxy)-3-cyano-N-(5-fluoro-1,3-thiazol-2-yl)benzenesulfonamide] had an IC50 of more than 6360 nM. To `N#Cc1cc(S(=O)(=O)Nc2ncc(F)s2)ccc1Oc1c(F)cccc1Cl` [Example 125, 4-(2-chloro-6-fluorophenoxy)-3-cyano-N-(5-fluoro-1,3-thiazol-2-yl)benzenesulfonamide] belongs 551 nM.

Take `N#Cc1cc(S(=O)(=O)Nc2ncc(F)s2)ccc1Oc1cc(F)cc(Cl)c1` [Example 126, 4-(3-chloro-5-fluorophenoxy)-3-cyano-N-(5-fluoro-1,3-thiazol-2-yl)benzenesulfonamide]: the IC50 is 699 nM.

In turn, `Cc1cccc(Cl)c1Oc1ccc(S(=O)(=O)Nc2ncc(F)s2)cc1C#N` [Example 127, 4-(2-chloro-6-methylphenoxy)-3-cyano-N-(5-fluoro-1,3-thiazol-2-yl)benzenesulfonamide] registered an IC50 of 2290 nM. With `Cc1c(Oc2ccc(S(=O)(=O)Nc3ncc(F)s3)cc2C#N)ccc(F)c1F` [Example 128, 3-cyano-4-(3,4-difluoro-2-(methylphenoxy)-N-5-fluoro-1,3-thiazol-2-yl)benzenesulfonamide] the figure was 1190 nM; with `Cc1ccc(Cl)cc1Oc1ccc(S(=O)(=O)Nc2ncc(F)s2)cc1C#N` [Example 129, 4-(5-chloro-2-methylphenoxy)-3-cyano-N-(5-fluoro-1,3-thiazol-2-yl)benzenesulfonamide], 480 nM; with `N#Cc1cc(S(=O)(=O)Nc2ncc(F)s2)ccc1Oc1ccc(F)cc1Cl` [Example 130, 4-(2-chloro-4-fluorophenoxy)-3-cyano-N-(5-fluoro-1,3-thiazol-2-yl)benzenesulfonamide], 414 nM. To `CCc1cc(F)ccc1Oc1ccc(S(=O)(=O)Nc2ncc(F)s2)cc1C#N` [Example 131, 3-cyano-4-(2-ethyl-4-fluorophenoxy)-N-(5-fluoro-1,3-thiazol-2-yl)benzenesulfonamide] belongs 297 nM; to `N#Cc1cccc(Oc2ccc(S(=O)(=O)Nc3ncc(F)s3)cc2C#N)c1` [Example 132, 3-cyano-4-(3-cyanophenoxy)-N-(5-fluoro-1,3-thiazol-2-yl)benzenesulfonamide], 2600 nM.

As for `N#Cc1cc(S(=O)(=O)Nc2ncc(F)s2)ccc1Oc1cccc(C(F)(F)F)c1` [Example 133, 3-cyano-N-(5-fluoro-1,3-thiazol-2-yl)-4-[3-(trifluoromethyl)phenoxy]benzenesulfonamide], the IC50 turned out to be 1580 nM. To `N#Cc1cc(S(=O)(=O)Nc2ncc(F)s2)ccc1Oc1cc(C(F)(F)F)ccc1F` [Example 134, 3-cyano-N-(5-fluoro-1,3-thiazol-2-yl)-4-[2-fluoro-5-(trifluoromethyl)phenoxy]benzenesulfonamide] belongs 718 nM. To `CC(C)(O)c1cccc(Oc2ccc(S(=O)(=O)Nc3ncc(F)s3)cc2C#N)c1` [Example 135, 3-cyano-N-(5-fluoro-1,3-thiazol-2-yl)-4-[3-(2-hydroxypropan-2-yl)phenoxy]benzenesulfonamide] belongs 1730 nM. With `N#Cc1cc(S(=O)(=O)Nc2ncc(F)s2)ccc1Oc1cc(C(F)(F)F)ccc1Cl` [Example 136, 4-[2-chloro-5-(trifluoromethyl)phenoxy]-3-cyano-N-(5-fluoro-1,3-thiazol-2-yl)benzenesulfonamide] the figure was 464 nM. Molecule `CC(C)(C)c1cccc(Oc2ccc(S(=O)(=O)Nc3ncc(F)s3)cc2C#N)c1` [Example 137, 4-(3-tert-butylphenoxy)-3-cyano-N-(5-fluoro-1,3-thiazol-2-yl)benzenesulfonamide] returned an IC50 of more than 8950 nM. With `N#Cc1cc(S(=O)(=O)Nc2ncc(F)s2)ccc1Oc1cc(C(F)(F)F)cc(C(F)(F)F)c1` [Example 138, 4-[3,5-bis(trifluoromethyl)phenoxy]-3-cyano-N-(5-fluoro-1,3-thiazol-2-yl)benzenesulfonamide] the figure was 3470 nM; with `N#Cc1cc(S(=O)(=O)Nc2ncc(F)s2)ccc1Oc1cc(F)cc(C(F)(F)F)c1` [Example 139, 3-cyano-N-(5-fluoro-1,3-thiazol-2-yl)-4-[3-fluoro-5-(trifluoromethyl)phenoxy]benzenesulfonamide], 3380 nM. With `N#Cc1cc(S(=O)(=O)Nc2ncc(F)s2)ccc1Oc1ccc(C#N)c(C(F)(F)F)c1` [Example 140, 3-cyano-4-[4-cyano-3-(trifluoromethyl)phenoxy]-N-(5-fluoro-1,3-thiazol-2-yl)benzenesulfonamide] the figure was more than 7300 nM; with `N#Cc1cc(S(=O)(=O)Nc2ncc(F)s2)ccc1Oc1ccc(Cl)c(C(F)(F)F)c1` [Example 141, 4-[4-chloro-3-(trifluoromethyl)phenoxy]-3-cyano-N-(5-fluoro-1,3-thiazol-2-yl)benzenesulfonamide], 737 nM.

Take `CCc1cc(Oc2ccc(S(=O)(=O)Nc3ncc(F)s3)cc2C#N)ccc1Cl` [Example 142, 4-(4-chloro-3-ethylphenoxy)-3-cyano-N-(5-fluoro-1,3-thiazol-2-yl)benzenesulfonamide]: half-maximal inhibition (IC50) required 540 nM. For `N#Cc1cc(S(=O)(=O)Nc2ncc(F)s2)ccc1Oc1ccc(F)c(C(F)(F)F)c1` [Example 143, 3-cyano-N-(5-fluoro-1,3-thiazol-2-yl)-4-[4-fluoro-3-(trifluoromethyl)phenoxy]benzenesulfonamide], the IC50 came out at 566 nM.

Turning to `N#Cc1cc(S(=O)(=O)Nc2ncc(F)s2)ccc1Oc1ccc(CCO)cc1I` [Example 145, 3-cyano-N-(5-fluoro-1,3-thiazol-2-yl)-4-[4-(2-hydroxyethyl)-2-iodophenoxy]benzene-sulfonamide], half-maximal inhibition (IC50) was put at 803 nM. As to `N#Cc1cc(S(=O)(=O)Nc2ncc(F)s2)ccc1Oc1ccc(CCO)cc1` [Example 146, 3-cyano-N-(5-fluoro-1,3-thiazol-2-yl)-4-[4-(2-hydroxyethyl)phenoxy]benzenesulfonamide], the IC50 was more than 10000 nM. The molecule `N#Cc1cc(S(=O)(=O)Nc2ncc(F)s2)ccc1Oc1ccc(CCCO)cc1` [Example 147, 3-cyano-N-(5-fluoro-1,3-thiazol-2-yl)-4-[4-(3-hydroxypropyl)phenoxy]benzenesulfonamide] came in with an IC50 of more than 10000 nM. With `N#Cc1cc(S(=O)(=O)Nc2cscn2)ccc1Oc1ccc(Cl)cc1OC(F)F` [Example 148, 4-[4-chloro-2-(difluoromethoxy)phenoxy]-3-cyano-N-(1,3-thiazol-4-yl)benzenesulfonamide] the figure was 118 nM; with `O=S(=O)(Nc1cscn1)c1cc(Cl)c(Oc2ccc(F)cc2I)cc1F` [Example 149, 5-chloro-2-fluoro-4-(4-fluoro-2-iodophenoxy)-N-(1,3-thiazol-4-yl)benzenesulfonamide], 494 nM; with `COc1cc(Cl)ccc1Oc1cc(F)c(S(=O)(=O)Nc2nncs2)cc1Cl` [Example 150, 5-chloro-4-(4-chloro-2-methoxyphenoxy)-2-fluoro-N-(1,3,4-thiadiazol-2-yl)benzenesulfonamide], 2510 nM. `O=S(=O)(Nc1ncns1)c1cc(Cl)c(Oc2ccc(Cl)cc2OC(F)(F)F)cc1F` [Example 151, 5-chloro-4-[4-chloro-2-(trifluoromethoxy)phenoxy]-2-fluoro-N-(1,2,4-thiadiazol-5-yl)benzenesulfonamide] had an IC50 of 508 nM. To `O=S(=O)(Nc1nncs1)c1cc(Cl)c(Oc2ccc(Cl)cc2OC(F)F)cc1F` [Example 152, 5-chloro-4-[4-chloro-2-(difluoromethoxy)phenoxy]-2-fluoro-N-(1,3,4-thiadiazol-2-yl)benzenesulfonamide] belongs more than 10000 nM; to `COc1cc(Cl)ccc1Oc1cc(F)c(S(=O)(=O)Nc2ncns2)cc1Cl` [Example 154, 5-chloro-4-(4-chloro-2-methoxyphenoxy)-2-fluoro-N-(1,2,4-thiadiazol-5-yl)benzenesulfonamide], 1630 nM. In turn, `N#Cc1ccc(Oc2cc(F)c(S(=O)(=O)Nc3ncns3)cc2Cl)c(OC(F)F)c1` [Example 155, 5-chloro-4-[4-cyano-2-(difluoromethoxy)phenoxy]-2-fluoro-N-(1,2,4-thiadiazol-5-yl)benzenesulfonamide diethylamine salt] had an IC50 of more than 7250 nM. To `N#Cc1ccc(OC(F)F)c(Oc2cc(F)c(S(=O)(=O)Nc3ncns3)cc2Cl)c1` [Example 156, 5-chloro-4-[5-cyano-2-(difluoromethoxy)phenoxy]-2-fluoro-N-(1,2,4-thiadiazol-5-yl)benzenesulfonamide diethylamine salt] belongs 3430 nM.
